Consider 3 molecules from US20230117361A1, “COMPOSITION COMPRISING MIR-335” (AGENCY FOR SCIENCE, TECHNOLOGY AND RESEARCH, priority 2019, published 2023).

The test system of data set [1] is AD-like symptoms. The settings on record: mice, two independent studies [24, 25]; cited from earlier work.
Data set [2] concerns N/TERT-1 cells. Kind of data set: HDAC inhibitor screening: toxicity, growth arrest and differentiation. In kind it is cell-based, human. The settings on record: HDACi 1 μM, 48 hrs. How it is done:
A panel of 42 HDAC inhibitors (HDACi) covering the majority of type I, II and pan HDACis were purchased from Selleckchem. N/TERT-1 grown to confluence were treated with HDACi at a final concentration of 1 μM from a 100 μM stock. Control wells were treated with DMSO at a final concentration of 1%. After 48 hrs of treatment, cells were either processed for total RNA isolation or fixed and stained for human involucrin by immunocytochemistry.

In data set [3] the test system is N/TERT-1 keratinocytes. Briefly: Cornified envelope assay. Conditions: N/TERT-1 treated with HDAC inhibitor vs control, FIG. 6C, 6D. In kind it is cell-based, human. How it is done:
N/TERT-1 keratinocytes were grown in DF-K media until confluent, and then shifted to high Ca^2+ conditions (1.5 mM) for a further 7 days in fresh DF-K media to induce terminal differentiation and cornified envelope formation, and the number of cornified envelopes (CEs) assessed following the method of Rice et al. In brief, cells were trypsinized and resuspended at 2.0×10^6 cells/ml in dissociation buffer containing 0.1 M Tris-HCl buffer pH 8.0, 2% SDS and 20 mM dithiothreitol. CEs were harvested by boiling the samples for 15 minutes at 100° C. Detergent- and reducing agent-resistant CEs were collected as an insoluble pellet by centrifugation at 4000×g for 10 minutes. CEs were counted with a hemocytometer, and CE formation was expressed as a percentage of input cell number.

The subject of data set [4] is N/TERT-1 keratinocytes. Briefly: Expression of MEST and keratinocyte differentiation markers (IVL, SPRR2F, TGM1) in N/TERT-1 cells treated with HDAC inhibitors. In kind it is cell-based, human. How it is done: Cells were fixed and permeabilized with ice-cold acetone/methanol for 10 minutes. After washing in phosphate buffered saline (PBS), the cells were incubated with 10% goat serum for 30 minutes. The cells were subsequently incubated with primary antibodies for 2 hours at room temperature or overnight at 4° C. After washing three times with PBS with 0.1% Tween 20, the cells were incubated in dark with Alexa Fluor secondary antibodies (Invitrogen) for an hour. Nuclei were stained using DAPI. After washing with PBS, the cells were mounted onto slides with FluorSave reagent (EMD Millipore). Images were taken with an FV1000 inverted confocal microscope (Olympus) using Olympus FluoView.
(§1) Total RNA was isolated using miRCURY™ RNA isolation kit (Exiqon). For miRNA quantification, cDNA was synthesized using Taqman® miRNA reverse transcription kit (Life Technologies) and the expression level of miRNAs was quantified by TaqMan Gene Expression Assays (Applied Biosystems) in 7900 fast RT-PCR system (Applied Biosystems) using Taqman miRNA-specific primers. For mRNA expression, cDNA was synthesized using SuperScript® III Reverse Transcriptase (Life Technologies) according to manufacturer's protocol. The expression levels of mRNAs were measured using SYBR green PCR Master Mix (Applied Biosystems). U6 and RPLP0 were used as endogenous normalization controls for miRNA and protein-coding genes, respectively. The expression of a gene/miRNA was defined from threshold cycle (Ct), and relative transcript abundance was calculated using ddCT method. All reactions were run in triplicates. The primers were designed using the Primer3 software and the NCBI design primer tools. The primers were checked for their GC content and any secondary structure formation using OligoCalc.
A panel of 42 HDAC inhibitors (HDACi) covering the majority of type I, II and pan HDACis were purchased from Selleckchem. N/TERT-1 grown to confluence were treated with HDACi at a final concentration of 1 μM from a 100 μM stock. Control wells were treated with DMSO at a final concentration of 1%. […]

Data set [5] relates to human skin biopsies. Briefly: Ex-vivo human skin organ culture model, topical treatment. How it is done: (§2) Paraffin wax-embedded skin tissue sections (5 μm) were dewaxed, rehydrated and boiled in pre-treatment solution (Panomics) for 5 minutes and subsequently treated with protease (Panomics) for 30 minutes at 37° C. Locked nucleic acid (LNA) probes were then added to the sections and incubated at 51° C. for 4 hours. The LNA probes used are specific to miR-335 and scrambled (non-targeting) sequences and are 5′ and 3′ digoxigenin- (DIG-) labelled. After washing the sections sequentially with 5× saline-sodium citrate (SSC), 1×SSC and 0.3×SSC buffer, they were blocked with 10% goat serum and incubated with anti-DIG alkaline phosphatase (Roche) overnight at 4° C. Fast Red Substrate (Panomics) were used to detect miRNA-bound LNA probes. Tissue sections were counterstained with 4′,6-diamidino-2-phenylindole dihydrochloride (DAPI) (Sigma-Aldrich) and mounted with FluorSave™ reagent (EMD Millipore). The slides were examined with an FV1000 inverted confocal microscope (Olympus) and images were acquired using Olympus FluoView with TRITC and DAPI filters.
Paraffin wax-embedded skin tissue sections (5 μm) were dewaxed and rehydrated through decreasing concentration of ethanol. Endogenous peroxidases in tissue sections were quenched by 3% H2O2 in absolute methanol for 30 minutes. The sections were then boiled in antigen retrieval solution (pH 6, DAKO). Sections were then blocked in 10% goat serum for 30 minutes and incubated with primary antibodies overnight at 4° C. After incubation with primary antibodies, tissues were incubated with anti-rabbit or -mouse Envision-labelled polymer reagents (DAKO) for 1 hour at room temperature. The staining was visualized by 3,3′-diaminodbenzidine (DAB) substrate chromogen kit (DAKO). Slides were counterstained with haematoxylin and examined with a Zeiss AxioImager Z1 upright light microscope after mounting with CytosealTM60 mounting medium (Richard Allan Scientific). Images were acquired using Zeiss Zen software.
as §1, with “U6 and RPLP0 were used as endogenous normalization controls for miRNA and protein-coding genes, respectively.” left out, “All reactions were run in triplicates. The primers were designed using the Primer3 software and the NCBI design primer tools. The primers were checked for their GC content and any secondary structure formation using OligoCalc.” left out

The test system of data set [6] is miR-335. Briefly: miR-335 expression in N/TERT-1 cells treated with HDAC inhibitors (qRT-PCR, in situ hybridization). In kind it is cell-based, human. How it is done:
as §2, with “Tissue sections were counterstained with 4′,6-diamidino-2-phenylindole dihydrochloride (DAPI) (Sigma-Aldrich) and mounted with FluorSave™ reagent (EMD Millipore). The slides were examined with an FV1000 inverted confocal microscope (Olympus) and images were acquired using Olympus FluoView with TRITC and DAPI filters.” left out
Total RNA was isolated using miRCURY™ RNA isolation kit (Exiqon). For miRNA quantification, cDNA was synthesized using Taqman® miRNA reverse transcription kit (Life Technologies) and the expression level of miRNAs was quantified by TaqMan Gene Expression Assays (Applied Biosystems) in 7900 fast RT-PCR system (Applied Biosystems) using Taqman miRNA-specific primers. […] The expression levels of mRNAs were measured using SYBR green PCR Master Mix (Applied Biosystems). […] The expression of a gene/miRNA was defined from threshold cycle (Ct), and relative transcript abundance was calculated using ddCT method. […]
In general terms: In qPCR the cycle at which signal appears reflects the starting amount.

Data set [7] relates to promoter region of miR-335 and MEST. Briefly: Chromatin immunoprecipitation (ChIP)-qPCR at the promoter region of miR-335 and MEST. In kind it is cell-based, human. How it is done: Cells were crosslinked with 1.5% formaldehyde for 10 minutes at 37° C. The reaction was stopped by adding glycine to the final concentration of 125 mM for 5 minutes at 37° C. Fixed cells were washed twice with ice-cold PBS, scraped and centrifuged. The pellets were then incubated with Buffer A (10 mM HEPES Ph7.9, 10 mM KCl, 0.1 mM EGTA, 1 mM DTT and 0.5 mM PMSF) supplemented with 1×protease inhibitor cocktail (Roche) and 10% glycerol on ice for 30 min, followed by 0.5% NP-40 for 5 minutes to lyse cytoplasmic membrane. The cells were then centrifuged at 1500×g for 5 minutes to pellet down nuclei. Nuclear pellet was then lysed in ChIP buffer (50 mM Tris pH 7.4, 150 mM NaCl, 5 mM EDTA, 0.5% NP-40, 1% Triton X-100, 0.05% SDS, 1×protease inhibitor cocktail). Nuclear chromatin was sheared by sonication for 15 min (30 sec on and 30 sec off) in Bioruptor® water bath sonicator. The sonicated samples were centrifuged, and the supernatant containing the sheared chromatin was harvested. For each ChIP reaction, 250 μl of chromatin extract was incubated with appropriate antibodies at 4° C. overnight on a rotary wheel. 50 μl of Protein A sepharose resin (precoated with 0.5% BSA and 0.2 mg/mL tRNA) was then added to the immunoprecipitated samples and incubated for 2 hours. […] Fold enrichment of the genes was calculated using ddCt method with input Ct values as normalization control.

Take `CC(/C=C/C(=O)NO)=C\[C@@H](C)C(=O)c1ccc(N(C)C)cc1` [TSA, trichostatin A]: the “development of AD-like symptoms” value in data set [1] is on record as “suppress the development of AD-like symptoms”.

In the case of `O=C(/C=C/c1cccc(S(=O)(=O)Nc2ccccc2)c1)NO` [belinostat, (E)-N-hydroxy-3-(3-(N-phenylsulfamoyl)phenyl)acrylamide], the toxicity entry in data set [2] was “low toxicity”. In data set [3], the “number of cornified envelopes (CEs)” value was “increased number of CEs”. Further, in data set [4] (N/TERT-1 cells vs control cells, FIG. 6B lower panel), the “expression of IVL by immunocytochemistry” value is recorded as “significant expression of IVL”. For the same molecule, the “expression of miR-335 in epidermal layers by in situ hybridization” value in data set [5] (human skin biopsies vs mock treated skin, FIG. 6F) is on record as “higher expression of miR-335”. Also, in data set [5] (human skin biopsies, FIG. 6G), the “levels of IVL by immunohistochemistry” value is recorded as “significant increase in the levels of IVL”. Moreover, the “filaggrin (FLG) protein by immunohistochemistry” value in data set [5] (human skin biopsies, FIG. 11) was “induced significant levels of filaggrin”. For the same molecule, the “expression of miR-335 by quantitative RT-PCR” value in data set [5] (human skin biopsies, topical in acetone, 1 mM, daily for six days, FIG. 6E) is listed as “significant expression of miR-335”. For the same molecule, in data set [6] (N/TERT-1 cells, FIG. 6B upper panel), the “expression of miR-335 by in situ hybridization” value was “Induced expression of miR-335”.

Regarding `CCCC(=O)[O-].[Na+]` [sodium butyrate], the “relative expression of MEST” value in data set [4] (N/TERT-1, qRT-PCR, FIG. 5C) is “significantly increased MEST expression”. Also, the “relative transcript abundance of differentiation markers IVL, SPRR2F and TGM1” value in data set [4] (N/TERT-1, qRT-PCR, FIG. 5F) is on record as “significant upregulation”. Further, the “enrichment of H3K4ac at the upstream region of MEST and miR-335” value in data set [7] (N/TERT-1, ChIP, FIG. 5D) is recorded as “significant increase in the enrichment of H3K4ac”. Moreover, the “HDAC2 enrichment in the promoter region of miR-335” value in data set [7] (keratinocytes, ChIP) is “reduced”. Besides, the “relative expression of miR-335” value in data set [6] (N/TERT-1 keratinocytes, qRT-PCR, FIG. 5B) was “significant miR-335 upregulation”.
